The target in experiment [1] is Delta-type opioid receptor (Rattus norvegicus, UniProt P33533). The experiment is described as follows: Displacement of [3H]DPDPE from delta opiate receptor in rat brain membranes. It is filed as cell membranes. (In general: Loss of bound radioactivity is the signal in a displacement assay; it reports binding, not function.)
The target in a further experiment is Mu-type opioid receptor (Rattus norvegicus, UniProt P33535). Description: Displacement of [3H]DAMGO from mu opiate receptor in rat brain membranes. It is filed as cell membranes.
The next experiment has as its target Melanocortin receptor 4 (Homo sapiens, UniProt P32245). Description: Displacement of [125I]Nle4-D-Phe7-alpha-MSH from human MC4 receptor expressed in COS1 cells. It is filed as cell-based, COS-1.
Experiment [2] concerns the target Norepinephrine transporter (Rattus norvegicus, UniProt Q9WTR4). Description: Displacement of [3H]nisoxetine from NET in rat cortical membranes. It is filed as cell membranes, Membrane.
For experiment [3], the target named is Sodium-dependent serotonin transporter (Rattus norvegicus, UniProt P31652). Description: Displacement of [3H][…] from SET in rat cortical membranes. It is filed as cell membranes, Membrane.
The next experiment deals with Histamine H1 receptor (Rattus norvegicus, UniProt P31390). Description: Displacement of [3H]pyrilamine from histamine H1 receptor in rat brain membranes. It is filed as cell membranes.
Experiment [4] has as its target T1, Adrenergic receptor alpha-1 (Rattus norvegicus, UniProt P15823+P23944+P43140).
T1 sequence (P15823 whole entry): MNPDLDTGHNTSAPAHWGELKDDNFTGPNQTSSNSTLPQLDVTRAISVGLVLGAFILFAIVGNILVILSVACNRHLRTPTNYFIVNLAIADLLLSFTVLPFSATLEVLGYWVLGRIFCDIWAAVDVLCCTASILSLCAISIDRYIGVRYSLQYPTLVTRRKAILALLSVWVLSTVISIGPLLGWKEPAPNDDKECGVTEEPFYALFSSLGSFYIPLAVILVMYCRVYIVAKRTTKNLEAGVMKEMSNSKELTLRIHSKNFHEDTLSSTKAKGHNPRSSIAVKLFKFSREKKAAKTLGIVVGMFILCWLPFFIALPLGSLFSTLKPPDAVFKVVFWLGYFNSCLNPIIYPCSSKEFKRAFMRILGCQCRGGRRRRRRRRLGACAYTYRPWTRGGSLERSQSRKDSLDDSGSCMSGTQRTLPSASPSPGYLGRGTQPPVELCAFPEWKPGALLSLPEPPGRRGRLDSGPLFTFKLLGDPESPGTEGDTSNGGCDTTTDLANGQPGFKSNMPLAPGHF
T1 sequence (P23944 whole entry): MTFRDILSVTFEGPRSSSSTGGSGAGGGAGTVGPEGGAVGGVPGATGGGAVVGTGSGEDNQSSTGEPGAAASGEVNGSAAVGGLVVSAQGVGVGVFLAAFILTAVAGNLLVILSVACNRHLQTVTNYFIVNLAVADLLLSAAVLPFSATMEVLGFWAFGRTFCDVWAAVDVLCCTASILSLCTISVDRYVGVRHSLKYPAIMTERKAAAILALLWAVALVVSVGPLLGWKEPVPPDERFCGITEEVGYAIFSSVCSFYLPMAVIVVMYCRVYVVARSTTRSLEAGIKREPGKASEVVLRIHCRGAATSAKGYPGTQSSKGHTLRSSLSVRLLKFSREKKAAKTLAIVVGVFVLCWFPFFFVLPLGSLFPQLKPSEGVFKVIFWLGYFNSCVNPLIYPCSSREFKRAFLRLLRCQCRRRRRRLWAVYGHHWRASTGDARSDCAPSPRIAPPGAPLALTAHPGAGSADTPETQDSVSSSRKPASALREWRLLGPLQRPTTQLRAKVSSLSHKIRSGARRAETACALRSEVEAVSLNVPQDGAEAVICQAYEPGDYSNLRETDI
T1 sequence (P43140 whole entry): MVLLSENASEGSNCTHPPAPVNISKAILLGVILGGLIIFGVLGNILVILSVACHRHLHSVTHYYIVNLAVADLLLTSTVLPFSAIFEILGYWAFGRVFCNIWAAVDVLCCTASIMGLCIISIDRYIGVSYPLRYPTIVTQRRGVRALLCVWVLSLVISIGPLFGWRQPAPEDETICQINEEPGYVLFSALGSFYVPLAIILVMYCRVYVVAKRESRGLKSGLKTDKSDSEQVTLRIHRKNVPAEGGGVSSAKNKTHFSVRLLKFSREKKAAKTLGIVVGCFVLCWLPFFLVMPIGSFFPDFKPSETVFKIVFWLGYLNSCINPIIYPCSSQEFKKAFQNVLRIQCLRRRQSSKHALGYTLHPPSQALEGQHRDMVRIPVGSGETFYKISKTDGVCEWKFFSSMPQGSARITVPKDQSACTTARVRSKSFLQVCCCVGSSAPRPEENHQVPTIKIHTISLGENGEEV
The experiment is described as follows: Displacement of [3H]prazosin from adrenergic alpha-1 receptor in rat cortical membranes. It is filed as cell membranes, Membrane.

For a further experiment, the target named is D(2) dopamine receptor (Rattus norvegicus, UniProt P61169). The experiment is described as follows: Displacement of [3H]raclopride from dopamine D2 receptor in rat striatal membranes. It is filed as cell membranes, Membrane.

Each structure is given as a SMILES string. A value given as a limit tells only on which side of the number the result lay.

Chain of Delta-type opioid receptor (P33533 whole entry): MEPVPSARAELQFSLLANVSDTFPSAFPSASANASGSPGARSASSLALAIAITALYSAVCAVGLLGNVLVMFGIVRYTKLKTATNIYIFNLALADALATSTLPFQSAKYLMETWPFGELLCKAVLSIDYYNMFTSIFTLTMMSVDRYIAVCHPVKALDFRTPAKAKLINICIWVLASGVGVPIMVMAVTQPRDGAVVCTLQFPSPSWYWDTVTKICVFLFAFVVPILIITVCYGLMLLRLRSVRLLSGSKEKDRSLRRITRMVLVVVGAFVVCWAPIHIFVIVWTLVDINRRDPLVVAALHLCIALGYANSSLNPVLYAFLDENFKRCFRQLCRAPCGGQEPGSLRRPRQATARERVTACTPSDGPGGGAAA
Chain of Histamine H1 receptor (P31390 whole entry): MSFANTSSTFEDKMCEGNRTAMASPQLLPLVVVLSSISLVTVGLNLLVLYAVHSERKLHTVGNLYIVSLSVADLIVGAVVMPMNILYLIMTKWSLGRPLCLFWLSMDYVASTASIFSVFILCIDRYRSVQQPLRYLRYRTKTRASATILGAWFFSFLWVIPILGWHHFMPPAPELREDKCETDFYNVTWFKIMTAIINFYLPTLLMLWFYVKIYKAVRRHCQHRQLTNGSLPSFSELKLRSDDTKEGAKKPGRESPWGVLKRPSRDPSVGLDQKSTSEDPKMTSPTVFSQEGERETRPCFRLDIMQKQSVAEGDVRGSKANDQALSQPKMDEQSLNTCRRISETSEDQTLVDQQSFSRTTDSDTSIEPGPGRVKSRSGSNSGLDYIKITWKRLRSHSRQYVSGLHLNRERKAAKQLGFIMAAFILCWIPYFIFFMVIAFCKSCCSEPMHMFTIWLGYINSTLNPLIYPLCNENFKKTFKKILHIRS
Chain of D(2) dopamine receptor (P61169 whole entry): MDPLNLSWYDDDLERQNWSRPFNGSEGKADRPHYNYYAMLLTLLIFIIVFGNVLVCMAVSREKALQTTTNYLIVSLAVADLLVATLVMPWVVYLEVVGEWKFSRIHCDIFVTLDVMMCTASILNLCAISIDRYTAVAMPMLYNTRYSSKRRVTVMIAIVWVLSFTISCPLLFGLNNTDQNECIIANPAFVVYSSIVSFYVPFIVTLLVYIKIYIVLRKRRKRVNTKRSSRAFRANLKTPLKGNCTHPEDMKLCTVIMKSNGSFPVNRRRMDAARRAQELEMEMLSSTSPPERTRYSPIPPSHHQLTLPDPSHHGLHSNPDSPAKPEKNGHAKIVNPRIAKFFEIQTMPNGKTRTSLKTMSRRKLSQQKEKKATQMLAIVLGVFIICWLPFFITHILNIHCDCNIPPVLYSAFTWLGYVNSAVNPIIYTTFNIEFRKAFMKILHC
Chain of Mu-type opioid receptor (P33535 whole entry): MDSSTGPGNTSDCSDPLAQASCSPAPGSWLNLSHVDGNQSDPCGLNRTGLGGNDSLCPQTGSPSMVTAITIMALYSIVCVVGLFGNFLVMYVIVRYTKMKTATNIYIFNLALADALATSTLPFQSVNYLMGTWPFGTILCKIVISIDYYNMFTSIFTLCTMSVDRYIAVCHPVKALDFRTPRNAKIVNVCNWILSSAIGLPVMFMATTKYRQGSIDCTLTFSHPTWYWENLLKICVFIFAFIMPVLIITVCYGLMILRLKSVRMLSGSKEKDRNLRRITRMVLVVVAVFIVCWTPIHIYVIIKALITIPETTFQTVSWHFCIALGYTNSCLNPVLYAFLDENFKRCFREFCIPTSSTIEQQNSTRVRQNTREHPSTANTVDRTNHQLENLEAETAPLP
Chain of Melanocortin receptor 4 (P32245 whole entry): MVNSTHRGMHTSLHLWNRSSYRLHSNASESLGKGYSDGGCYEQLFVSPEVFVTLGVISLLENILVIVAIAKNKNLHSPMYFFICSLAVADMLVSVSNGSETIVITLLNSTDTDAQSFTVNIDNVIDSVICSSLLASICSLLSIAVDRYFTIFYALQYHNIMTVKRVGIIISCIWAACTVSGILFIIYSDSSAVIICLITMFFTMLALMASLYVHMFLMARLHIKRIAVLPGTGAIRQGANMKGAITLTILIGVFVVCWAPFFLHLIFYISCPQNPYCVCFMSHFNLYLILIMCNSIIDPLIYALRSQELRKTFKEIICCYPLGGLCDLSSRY
Chain of Sodium-dependent serotonin transporter (P31652 whole entry): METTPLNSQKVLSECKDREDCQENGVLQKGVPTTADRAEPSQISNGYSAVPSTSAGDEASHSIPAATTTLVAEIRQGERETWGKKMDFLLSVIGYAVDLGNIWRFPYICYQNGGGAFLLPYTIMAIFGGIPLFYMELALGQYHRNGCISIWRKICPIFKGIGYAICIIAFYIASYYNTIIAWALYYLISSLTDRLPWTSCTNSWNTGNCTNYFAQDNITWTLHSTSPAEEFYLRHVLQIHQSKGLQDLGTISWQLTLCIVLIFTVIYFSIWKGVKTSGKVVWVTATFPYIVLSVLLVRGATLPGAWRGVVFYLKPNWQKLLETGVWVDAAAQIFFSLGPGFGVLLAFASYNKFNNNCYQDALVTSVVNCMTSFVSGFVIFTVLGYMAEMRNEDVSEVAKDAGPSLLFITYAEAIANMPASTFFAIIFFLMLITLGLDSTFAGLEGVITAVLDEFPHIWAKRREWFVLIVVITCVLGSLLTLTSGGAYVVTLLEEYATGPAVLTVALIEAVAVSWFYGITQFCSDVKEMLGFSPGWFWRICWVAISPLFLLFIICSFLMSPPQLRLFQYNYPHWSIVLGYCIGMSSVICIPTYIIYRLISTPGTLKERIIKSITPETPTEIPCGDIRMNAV
Chain of Norepinephrine transporter (Q9WTR4 whole entry): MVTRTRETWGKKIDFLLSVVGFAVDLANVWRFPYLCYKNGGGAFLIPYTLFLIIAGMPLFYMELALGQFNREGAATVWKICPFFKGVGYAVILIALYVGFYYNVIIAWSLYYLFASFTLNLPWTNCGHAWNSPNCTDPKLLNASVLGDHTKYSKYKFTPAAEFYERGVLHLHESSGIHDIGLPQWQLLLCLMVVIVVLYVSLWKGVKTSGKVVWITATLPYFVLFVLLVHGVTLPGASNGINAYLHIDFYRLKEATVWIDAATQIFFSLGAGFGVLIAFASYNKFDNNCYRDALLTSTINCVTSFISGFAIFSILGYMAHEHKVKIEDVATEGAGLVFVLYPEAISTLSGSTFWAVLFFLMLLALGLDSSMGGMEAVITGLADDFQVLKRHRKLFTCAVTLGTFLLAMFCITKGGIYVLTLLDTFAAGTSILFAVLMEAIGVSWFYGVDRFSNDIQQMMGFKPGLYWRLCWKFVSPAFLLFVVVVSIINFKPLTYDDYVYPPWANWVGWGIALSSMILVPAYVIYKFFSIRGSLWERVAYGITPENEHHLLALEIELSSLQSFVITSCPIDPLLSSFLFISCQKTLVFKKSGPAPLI

A word on the IC50: it is the midpoint of a concentration-inhibition curve. Lower therefore signals higher potency. Regarding `CC(C)N1CCN(C(CN2CCN(CCCc3cccc(F)c3-c3ccccc3)CC2)c2ccc(F)cc2)CC1` (racemic), the IC50 in experiment [1] was above 10 µM; at Mu-type opioid receptor it was above 10 µM; at Melanocortin receptor 4, 0.023 µM; in experiment [2], 2.83 µM; in experiment [3], 3.4 µM; on Histamine H1 receptor, above 1 µM. Besides, the IC50 (in experiment [4]; at D(2) dopamine receptor) was above 1 µM throughout.

Regarding `CC(C)N1CCN(C(CN2CCN(CCCc3ccccc3-c3ccc(F)cc3)CC2)c2ccc(F)cc2)CC1` (racemic), the IC50 was above 10 µM in experiment [1]; above 10 µM on Mu-type opioid receptor; 0.0105 µM on Melanocortin receptor 4; 0.29 µM in experiment [2]; 1.34 µM in experiment [3]; above 1 µM on Histamine H1 receptor. Besides, the IC50 was above 1 µM in experiment [4] and 0.721 µM at D(2) dopamine receptor.

As to `CC(C)N1CCN(C(CN2CCN(CCCc3ccccc3-c3cccc(F)c3)CC2)c2ccc(F)cc2)CC1` (racemic), the IC50 in experiment [1] is above 10 µM; on Mu-type opioid receptor, above 10 µM; on Melanocortin receptor 4, 0.0236 µM; in experiment [2] it was 0.226 µM; in experiment [3] it was 2.11 µM; on Histamine H1 receptor, above 1 µM. Besides, the half-maximal inhibitory concentration (IC50) (in experiment [4]; on D(2) dopamine receptor) was above 1 µM in each case.

With `CC(C)N1CCN(C(CN2CCN(CCCc3cc(F)ccc3-c3ccccc3)CC2)c2ccc(F)cc2)CC1` (racemic), the IC50 in experiment [1] was above 10 µM; on Mu-type opioid receptor, above 10 µM; at Melanocortin receptor 4 it was 0.0271 µM; in experiment [2] it was 0.369 µM; in experiment [3] it was 1.17 µM; at Histamine H1 receptor, above 1 µM. In addition, the IC50 in experiment [4] was above 1 µM; on D(2) dopamine receptor, 0.721 µM.

In the case of `CC(C)N1CCN(C(CN2CCN(CCCc3ccc(F)cc3-c3ccccc3)CC2)c2ccc(F)cc2)CC1` (racemic), the IC50 was above 10 µM in experiment [1]; above 10 µM on Mu-type opioid receptor; 0.033 µM on Melanocortin receptor 4; 1.85 µM in experiment [2]; 1.37 µM in experiment [3]; above 1 µM at Histamine H1 receptor. Further, the IC50 (in experiment [4]; on D(2) dopamine receptor) was above 1 µM throughout.

In the case of `CC(C)N1CCN(C(CN2CCN(CCCc3c(F)cccc3-c3ccccc3)CC2)c2ccc(F)cc2)CC1` (racemic), the IC50 in experiment [1] is above 10 µM; at Mu-type opioid receptor, above 10 µM; at Melanocortin receptor 4 it was 0.0117 µM; in experiment [2], 0.206 µM; in experiment [3] it was 1.46 µM; on Histamine H1 receptor, above 1 µM. Further, the IC50 (in experiment [4]; at D(2) dopamine receptor) was above 1 µM throughout.

For `CC(C)N1CCN(C(CN2CCN(CCCc3ccccc3-c3ccccc3)CC2)c2ccc(F)cc2)CC1` (racemic), the IC50 in experiment [1] is above 10 µM; on Mu-type opioid receptor it was above 10 µM; at Melanocortin receptor 4 it was 0.0112 µM; in experiment [2], 0.671 µM; in experiment [3] it was 3.13 µM; at Histamine H1 receptor it was above 1 µM. Moreover, the results for the IC50 (in experiment [4]; on D(2) dopamine receptor) were above 1 µM and 0.645 µM, respectively.

With `CC(C)N1CCN(C(CN2CCN(CCCc3c(Cl)cccc3-c3ccccc3)CC2)c2ccc(F)cc2)CC1` (racemic), the IC50 in experiment [1] is above 10 µM; on Mu-type opioid receptor, above 10 µM; on Melanocortin receptor 4 it was 0.0271 µM; in experiment [2], 1.77 µM; in experiment [3] it was 1.29 µM; on Histamine H1 receptor it was above 1 µM. Moreover, the IC50 (in experiment [4]; on D(2) dopamine receptor) was above 1 µM in each case.

`Cc1cccc(-c2ccccc2)c1CCCN1CCN(CC(c2ccc(F)cc2)N2CCN(C(C)C)CC2)CC1` (racemic): the IC50 in experiment [1] is above 10 µM; on Mu-type opioid receptor, above 10 µM; on Melanocortin receptor 4, 0.0243 µM; in experiment [2], 2.4 µM; in experiment [3], 4.96 µM; on Histamine H1 receptor, above 1 µM. For the same molecule, the 50% inhibitory concentration (IC50) (in experiment [4]; at D(2) dopamine receptor) was above 1 µM each time.
